Earlier results on three compounds are cited in patent publication US20210251893A1, “Compositions and Methods for Treating Ocular Diseases” (Ocular Therapeutix, Inc., priority 2020, published 2021).

One data set concerns the target FP prostanoid receptor (Homo sapiens, UniProt P43088).

FP prostanoid receptor, sequence (P43088 whole entry): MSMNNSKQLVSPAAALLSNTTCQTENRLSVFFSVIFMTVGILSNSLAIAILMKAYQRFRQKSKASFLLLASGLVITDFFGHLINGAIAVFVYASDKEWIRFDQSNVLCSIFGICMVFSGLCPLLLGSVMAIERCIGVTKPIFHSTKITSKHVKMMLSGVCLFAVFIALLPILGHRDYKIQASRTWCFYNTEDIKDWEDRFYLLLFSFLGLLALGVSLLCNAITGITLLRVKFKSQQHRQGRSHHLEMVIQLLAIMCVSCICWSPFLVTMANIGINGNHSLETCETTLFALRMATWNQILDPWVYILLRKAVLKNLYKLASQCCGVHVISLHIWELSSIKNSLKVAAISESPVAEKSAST

Consider `O=C(O)CCC/C=C\C[C@@H]1[C@@H](/C=C/[C@@H](O)COc2cccc(C(F)(F)F)c2)[C@H](O)C[C@@H]1O` [free acid of travoprost], for which the “Potency and selectivity for the FP prostanoid receptor” value at FP prostanoid receptor (compared to latanoprost) is “higher potency and greater selectivity”. `CC(C)OC(=O)CCC/C=C\C[C@@H]1[C@@H](/C=C/[C@@H](O)COc2cccc(C(F)(F)F)c2)[C@H](O)C[C@@H]1O` [Travoprost]: the “Affinity for the prostaglandin FP receptor” value at FP prostanoid receptor is “high affinity”. Consider `CC(C)OC(=O)CCC/C=C\C[C@@H]1[C@@H](CC[C@@H](O)CCc2ccccc2)[C@H](O)C[C@@H]1O` [Latanoprost], for which the “Solubility in aqueous solutions” value is listed as “relatively low solubility”.
